Entries after “also recorded” stand apart in the source; their conditions may differ.
How the values were obtained:
p185HER-2/neu = p185HER-2/neu level in treated cells, Western blot with anti-neu (C); format: cell-based, human; settings: cells treated with TAPI
Description: (§1) BT474 cells in serum-free medium were treated for 24 hrs with the control vehicle or with 1, 10, 20, and 40 μM TAPI (a gift from Immunex, Seattle, Wash.). In the top panel (FIG. 5A), the concentrated, conditioned media, normalized to the amount of cell extract, were analyzed by western blotting with anti-neu (N). Similar results were obtained when 5 μg of protein from the conditioned media from each culture were analyzed.
This example illustrates that a metalloprotease inhibitor depressed levels of p95HER-2 and ECD from BT474 cells. Shedding of diverse transmembrane proteins is inhibited by hydroxamic acid-based compounds, which are potent metalloproteinase inhibitors (McGeehan et al., Nature 370:561, 1994; Mohler et al., Nature 370:218-220, 1994; and Arribas et al., J. Biol. Chem. 271:11376-11382, 1996). Therefore, effects of different concentrations of the hydroxamic acid, TAPI (Mohler et al., Nature 370:218-220, 1994) was tested on shedding of HER-2/neu ECD and on cell levels of p95. TAPI (0 to 40 μM) was added to cultured BT474 cells for 24 hrs, the ECD in concentrated conditioned media was analyzed by immunoblotting with anti-neu (N), and p95HER-2 and p185HER-2 polypeptides were examined in cell extracts using an anti-neu (C) monoclonal antibody. […] A residual amount of about 10% of the ECD resisted inhibition by even 40 μM TAPI.

HER-2/neu ECD = assay: Shedding of HER-2/neu ECD into conditioned media, Western blot with anti-neu (N), BT474 cells; format: cell-based, human
Description: Cells were treated for 24 hrs in serum-free medium with control vehicle or with 500 nM of the phorbol ester TPA and 50 μM chloroquine. In the top panel (FIG. 4A), 5 ml of conditioned media was concentrated 100 fold, denatured under nonreducing conditions, and aliquots normalized to cell extract protein were analyzed by western blotting with anti-neu (N) monoclonal antibody at 1 μg/ml. In the lower panel (FIG. 4B), 20 μg of cell proteins were analyzed by Western blotting using anti-neu (C). The data shown in FIG. 4 are representative of three replicate experiments.
as §1, with “[…] In the lower panel (FIG. 5B), 20” for “Similar results were obtained when 5”, “cell proteins” for “protein from the conditioned media from each culture”, “analyzed by Western blotting using anti-neu (C).” for “analyzed.”
Tyrosine phosphorylation of tyrosine kinase receptors generally indicates their activation in signaling (Hynes et al., Biochem. Biophys. Acta 1198:165-184, 1994; and Dougall et al., Oncogene 9: 2109-2123, 1994). The tyrosine phosphorylation of p95HER-2, and its subcellular location were examined by fractionation of BT474 cell extracts into a soluble fraction and a particulate fraction. Each fraction was immunoprecipitated with anti-neu (C) and then subjected to Western blot analysis using monoclonal antibodies against phosphotyrosine. […]
To determine whether p95HER-2 and ECD were coordinately regulated, TPA (500 nM) and chloroquine (50 μM) or the control vehicle were added to the culture media of BT474 and SKOV3 cells. […] At 24 hrs, the ECD levels in the extracellular media and p95HER-2 levels in the cell extract were analyzed. […]

p95HER-2 [1] = assay: p95HER-2 level in a further, unnamed cell line treated with TAPI; format: cell-based
p95HER-2 [2] = assay: Cell level of truncated p95HER-2, Western blot of cell extracts with anti-neu (C), BT474 cells; format: cell-based, human
Description: as §1, with “[…] In the lower panel (FIG. 5B), 20” for “Similar results were obtained when 5”, “cell proteins” for “protein from the conditioned media from each culture”, “analyzed by Western blotting using anti-neu (C). […]” for “analyzed.”
Therefore, effects of different concentrations of the hydroxamic acid, TAPI (Mohler et al., Nature 370:218-220, 1994) was tested on shedding of HER-2/neu ECD and on cell levels of p95.

[3] = 1 μM TAPI, three separate experiments
[4] = BT474 cells, 24 hrs, 1, 10, 20 and 40 μM TAPI

TAPI
change in p185HER-2/neu levels (p185HER-2/neu): No change | inhibition of ECD level (HER-2/neu ECD; [3]): ≤ 50% | effect on ECD level (HER-2/neu ECD; [4]): inhibited; also recorded: suppressed | production of ECD at 1 μM TAPI (HER-2/neu ECD; BT474 cells, serum-free medium, 24 hrs, 1 μM): partially inhibited | effect on p95HER-2 in a cell line (p95HER-2 [1]): increased | inhibition of p95HER-2 level (p95HER-2 [2]; [3]): ≤ 50% | level of truncated p95HER-2 at 1 μM TAPI (p95HER-2 [2]; BT474 cells, 24 hrs, 1 μM): little or no effect | effect on p95HER-2 level (p95HER-2 [2]; [4]): inhibited; also recorded: suppressed
